From patent publication US11136409B2, “Compositions and methods for identification, assessment, prevention, and treatment of AML using USP10 biomarkers and modulators” (Dana-Farber Cancer Institute, Inc., priority 2016, dated 2021) come the findings set out here.

Like-named read-outs stand apart in the source and are kept apart here.

One experiment deals with PBMCs. Nature of the experiment: Treatment of PBMCs from healthy donors with USP10-targeting inhibitors. It is filed as cell-based, human. The settings on record: Homo sapiens, 24 hr assay. From the text: (§1) Nomo-1, P31-FUJ, and NB4 were obtained from Dr. Gary Gilliland. MV4, 11 cells were obtained from Dr. Anthony Letai. Hel, K562, THP, U937, TF-1 and K052 cells were purchased from the American Type Culture Collection (ATCC) (Manassas, Va., USA). […] Cell lines were submitted for cell line authentication and were authenticated within 6 months of manuscript preparation through cell line short tandem repeat (STR) profiling (DDC Medical, Fairfield, Ohio and Molecular Diagnostics Laboratory, Dana Farber Cancer Institute). […] PBMCs were generously provided by Dr. Steven Treon and Dr. Guang Yang.
(§2) The CellTiter-Glo® assay (Promega, Madison, Wis.) was used for proliferation studies and carried out according to manufacturer instructions. Cell viability is reported as percentage of control (untreated) cells, and error bars represent the standard error of the mean for each data point.

Experiment [1] has as its system AML primagraft (D835Y+, FLT3-ITD+) cells. Nature of the experiment: Treatment of mutant FLT3-expressing AML primagraft cells ex vivo. It counts as cell-based, human. The settings on record: Homo sapiens; 24 hr assay; read-out: IC50 (+/−S.D.) AML primagraft (D835Y+, FLT3-ITD+). How it is done:
All animal studies were performed according to protocols approved by the Dana-Farber Cancer Institute's Institutional Animal Care and Use Committee. […] Mice were sacrificed on day 21 of treatment. Bone marrow was flushed from mouse femurs, and spleens and livers were dissected and preserved first in formalin, followed 24 hours later by preservation in 70% ethanol. […] All AML primagraft samples used in the studies described herein were obtained through the Public Repository of Xenografts (proxe.org).
as §2

Experiment [2] concerns the target T1, human USP10 (residues 376-798) (Homo sapiens, UniProt Q14694).
T1 construct: A construct of human USP10 covering residues 376-798 in the pET28a vector; His-tag (cleaved yes); made in house; host or cells: E. coli BL21 (DE3)
Nature of the experiment: In vitro USP10 activity assay (Ubiquitin-AMC). It is filed as biochemical. The settings on record: ubiquitin-AMC as substrate; purified enzyme; read-out: USP10 biochemical IC50. On the procedure: Protein expression and purification. A construct of human USP10 covering residues 376-798 in the pET28a vector was over-expressed in E. coli BL21 (DE3) in TB medium in the presence of […] of kanamycin. Cells were grown at 37° C. to an OD of 0.8, cooled to 17° C., induced with 500 μM isopropyl-1-thio-D-galactopyranoside, incubated overnight at 17° C., collected by centrifugation, and stored at −80° C. Cell pellets were sonicated in buffer A (50 mM HEPES (pH 7.5), 300 mM NaCl, 10% glycerol, 10 mM Imidazole, and 3 mM BME) and the resulting lysate was centrifuged at 30,000×g for 30 min. Ni-NTA beads (Qiagen) were mixed with lysate supernatant for 30 min and washed with buffer A. Beads were transferred to an FPLC-compatible column and the bound protein was washed with 15% buffer B (50 mM HEPES (pH 7.5), 300 mM NaCl, 10% glycerol, 300 mM Imidazole, and 3 mM BME) and eluted with 100% buffer B. Thrombin was added to the eluted protein and incubated at 4° C. overnight. The sample was then passed through a HiPrep 26/10 desalting column (GE Healthcare) pre-equilibrated with buffer A without imidazole, and the eluted protein was subjected to a second Ni-NTA step to remove His-tag and Thrombin. The eluent was concentrated and passed through a Superdex® 200 10/300GL column (GE Healthcare) in a buffer containing 20 mM HEPES (pH 7.5), 150 mM NaCl, and 1 mM DTT. Fractions were pooled, concentrated to 20 mg/ml, and frozen at −80° C.
In vitro USP10 activity assay. Recombinant USP10, residues 376-798, was tested for its activity in a Ubiquitin-AMC assay in presence or absence of inhibitors. For this assay, 10 nM USP10 were pre-incubated with different concentrations of inhibitors or DMSO as a control in 50 mM HEPES pH7.6, 0.5 mM EDTA, 11 uM ovalbumin, and 5 mM DTT. The reaction was incubated for 6 hours at room temperature prior to the addition of 2 uM Ubiquitin-AMC (Boston Biochem) substrate. The initial rate of the reaction was measured by collecting fluorescence data at one minute intervals over 30-minute period using a CLARIOstar® fluorescence plate reader at excitation and emission wavelength of 345 and 445 nm, respectively. The calculated initial rate values were plotted against inhibitor concentrations to determine IC50 values.

The next experiment concerns MOLM14 cells. Nature of the experiment: Immunoblot of FLT3, Beclin-1, AKT, ERK1/ERK2 in MOLM14 cells. It is filed as cell-based, human. The settings on record: approximately 23 hours of treatment. The source says:
(§3) The following antibodies were purchased from Cell Signaling Technology (Danvers, Mass.): total AKT (rabbit, #9272) and total p44/42 MAPK (Erk1/2) (3A7) (mouse, #9107) were used at 1:1000 dilution. Anti-GAPDH (D16H-11) XP (R) (rabbit mAb, #5174) was used at 1:1000 dilution. Beclin-1 (rabbit, #3738) was used at 1:1000. USP10 (D7A5) (rabbit, #8501) was used at 1:1000 dilution. P53 (rabbit, #9282) was used at 1:1000 dilution. β-tubulin (rabbit, #2146s) was used 1:1000.
(§4) FLT3/Flk-2 (C-20) (sc-479) and Ub (P4D1) (mouse, sc-8017) were purchased from Santa Cruz Biotechnology, Inc. (Dallas, Tex.) and used at 1:1000 dilution for immunoblotting. Anti-pTyr (mouse, clone 4G10) was purchased from Upstate Biotechnology (Lake Placid, N.Y.) and was used at 1:1000 dilution. Anti-HAUSP/USP7 antibody (rabbit, ab4080) and anti-ubiquitin antibody (rabbit, ab7780) were purchased from Abcam (Cambridge, Mass.) and used at 1:1000 dilution.
(§5) Protein lysate preparation, immunoblotting, and immunoprecipitation were carried out as previously described in Weisberg et al. (2002) Cancer Cell 1:433-443.
In general terms: In western blotting, separated proteins are transferred to a membrane and probed.

The next experiment concerns USP10. Nature of the experiment: USP10 target engagement in cells, labeling with HA-Ub-VS. It is filed as cell-based. To be noted: lysates from live treated cells.
For experiment [3], the system named is Ba/F3-FLT3-ITD cells. Briefly: Proliferation of Ba/F3-FLT3-ITD cells. It is filed as cell-based, murine. The settings on record: concentration up to 20 μM; approximately 72 hours.
Text: as §1, §2

For experiment [4], the system named is Ba/F3-FLT3-ITD cells. Nature of the experiment: Immunoblot of FLT3 / Beclin-1 in Ba/F3-FLT3-ITD cells. It counts as cell-based, murine. To be noted: concentration up to 20 μM.
Text: as §3, §4, §5

Experiment [5] deals with primary tumor cells from FLT3-ITD positive AML patients and FLT3 mutant primagrafts. Nature of the experiment: Survival of primary AML patient cells and FLT3 mutant primagrafts. It is filed as cell-based, human. To be noted: approximately 72 hrs of treatment. The source says:
The trypan blue exclusion assay has been previously described in Weisberg et al. (2002) Cancer Cell 1:433-443 and was used for quantification of cells prior to seeding for CellTiter-Glo® assays. The CellTiter-Glo® assay (Promega, Madison, Wis.) was used for proliferation studies and carried out according to manufacturer instructions. Cell viability is reported as percentage of control (untreated) cells, and error bars represent the standard error of the mean for each data point.
Mononuclear cells were isolated from samples from AML patients identified as harboring mutant FLT3. Cells were tested in liquid culture (DMEM supplemented with 20% FBS) in the presence of different concentrations of single and combined agents. All blood and bone marrow samples from AML patients were obtained under approval of the Dana Farber Cancer Institute Institutional Review Board.

T1 sequence (Q14694 376-798): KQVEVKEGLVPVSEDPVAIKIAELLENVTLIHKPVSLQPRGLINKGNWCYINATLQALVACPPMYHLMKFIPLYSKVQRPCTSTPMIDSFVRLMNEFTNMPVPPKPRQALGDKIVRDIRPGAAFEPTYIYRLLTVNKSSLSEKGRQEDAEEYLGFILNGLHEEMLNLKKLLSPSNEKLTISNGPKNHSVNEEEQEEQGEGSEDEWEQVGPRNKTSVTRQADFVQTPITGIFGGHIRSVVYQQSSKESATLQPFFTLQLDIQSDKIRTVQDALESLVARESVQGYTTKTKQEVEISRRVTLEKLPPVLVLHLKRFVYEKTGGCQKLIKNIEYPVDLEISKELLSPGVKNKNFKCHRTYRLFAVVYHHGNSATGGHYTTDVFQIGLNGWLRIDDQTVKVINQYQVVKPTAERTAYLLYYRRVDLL

For the compound `CS(=O)(=O)c1ccc(NC(=O)c2cc(C#N)c(Sc3c(Cl)cncc3Cl)s2)cc1` [1247825-37-1, reference compound], the IC50 with PBMCs (PBMC#1, read-out: IC50 (+/−S.D.) PBMC#1) stood at 14.9 µM; in the experiment with PBMCs (PBMC#2, read-out: IC50 (+/−S.D.) PBMC#2), 16.6 µM; in experiment [1], 2.5 µM; in experiment [2], 36 µM. Also, the “Expression of AKT and ERK1/ERK2 downstream of FLT3” value with MOLM14 cells was “unchanged”. Moreover, the “Inhibitor concentration blocking USP10 labeling by HA-Ub-VS” value in the experiment with USP10 is given as “low micromolar range”.

As for `O=C(CCc1ccccc1)N1CCC(O)(Cn2cnc3cc(Cl)ccc3c2=O)CC1` [Compound 2], in the experiment with Ba/F3-FLT3-ITD cells [3], the Cell viability entry is “little impact on cell viability”. Also, the FLT3 levels result with Ba/F3-FLT3-ITD cells [4] was “did not lead to reduced FLT3 levels”. Moreover, the “Survival of patient samples and primagrafts” value in experiment [5] is recorded as “little to no effect”.
